In the METLIN SMRT retention time set (Domingo-Almenara et al. 2019) one finds RP-LC retention time data, which are given here for 79 compounds.

The data set can be described thus: gradient 5% acetonitrile 3 min, to 50% in 2 min, to 85% in 15 min, held 3 min, 100 µL/min. The settings on record: column: Zorbax Extend-C18 2.1 x 50 mm; eluents: water / acetonitrile, 0.1% formic acid. The gist of the method:
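The system's dead and dwell volumes were 40 μL and 900 μL, with a Zorbax Extend-C18 column (2.1 × 50 mm, 1.8 μm) run at 100 μL/min in water and acetonitrile containing 0.1% formic acid each. Pure standards were analyzed in mixtures of ~100 molecules by HPLC–quadrupole time-of-flight mass spectrometry in positive and negative ionization mode. Retention time was assigned from computationally picked, manually inspected adduct peaks.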
`Cc1cccc(-n2cc(C(=O)OCC(=O)OC(C)C)c3ccccc3c2=O)c1` came in with an RP-LC retention time of 1130 s.
As for `COCc1nncn1C1CN(C(=O)Nc2ccc(Cl)cc2C(F)(F)F)C1`, the figure is 963 s.
As for `CCC(C)(C)NS(=O)(=O)c1cc(-c2nc(C)c(C(=O)N3CCCC3)s2)cs1`, the RP-LC retention time worked out at 863 s.
For `O=C(NC1CC1)c1cccnc1N1CCSCC1` the value was 623 s; for `Cc1ccc(-n2ccc(=O)c(-c3nc(-c4ccc(F)c(Cl)c4)no3)n2)cc1`, 1030 s.
For `COC(=O)c1cnc(N2CCN(c3cc(Cl)ccc3C)CC2)c2ccccc12` the value was 651 s; for `O=C(CN1C(=O)C(C(=O)N2CCCC2)Sc2ccccc21)NCc1cccc(Br)c1` (centres undefined), 972 s.
For `COc1ccc(-c2noc(-c3nc(-c4cccnc4)no3)n2)cc1`, the RP-LC retention time was found to be 966 s.
`CCc1cc(=O)n(CC(=O)Nc2cccc(Cl)c2C)c(N2CCOCC2)n1` returned an RP-LC retention time of 771 s.
`Cc1cc(C)n(-c2nc(CC(=O)N3CCN(c4ccccc4)CC3)cs2)n1`: the RP-LC retention time was 947 s.
As for `CC(C)Cn1c(=O)c(-c2ccc(C(=O)NCc3ccncc3)cc2)nc2ccccc21`, the RP-LC retention time worked out at 681 s.
`Cc1ccc(-c2nnc(C)c(NCc3ccc4c(c3)OCO4)n2)cc1`: the RP-LC retention time was 730 s.
For `C=Cc1ccc(Cn2cc(S(=O)(=O)N3CCCC3)ccc2=O)cc1` the value was 886 s.
For `CCOC(=O)C1CCN(C(=O)c2cc(CC)n3nc(-c4ccco4)cc3n2)CC1` the value was 886 s; for `O=C(NCCC1CCN(C(=O)Nc2cc(F)cc(F)c2)CC1)C1CCC1`, 810 s; for `CCN1c2cc(Cl)ccc2C(=O)NC12CCN(C(=O)Nc1ccccc1C)CC2`, 837 s.
The compound `COc1cccc(-n2cc(C(=O)OCc3ccncc3)c3ccccc3c2=O)c1` displayed an RP-LC retention time of 714 s.
As for `CCN1CCCn2nc(C3CCN(C(=O)c4cccnc4SC)CC3)cc2C1=O`, the figure is 649 s; as for `Cc1noc([C@@H]2CN(C(=O)CC3CCCC3)C[C@H]2CO)n1`, 672 s.
For `Cc1cc(=O)n(CC(=O)Nc2cccc(C)c2C)c(NCCCc2ccccc2)n1` the value was 892 s; for `Cc1nnc2ccc(-c3cccc(NC(=O)C4CCN(S(C)(=O)=O)CC4)c3)nn12`, 605 s.
As for `Cc1ccc(NC(=O)CN2C(=O)C3CCCCN3c3ccc(S(=O)(=O)N(C)C)cc32)cc1C` (centres undefined), the figure is 922 s; as for `O=C(O)c1cc2nc(-c3ccc(F)cc3)cc(C(F)(F)F)n2n1`, 880 s.
`O=C(C1CCCO1)N1CCN(c2nc(CN3CCCCC3)cs2)CC1` (centres undefined) showed an RP-LC retention time of 579 s.
The compound `COc1cccc(CNC(=O)Cn2c(C)cc(-c3nnc(C4CCC4)o3)c2C)c1` came in with an RP-LC retention time of 834 s.
As for `CCN1CCN(S(=O)(=O)c2ccc(/C=C\c3onc(C)c3NC(=O)C3CC3)cc2)CC1`, the figure is 639 s; as for `O=C(c1ccc2c(=O)n(-c3ccccc3)c(N3CCCCC3)nc2c1)N1CCN(c2ccccn2)CC1`, 669 s; as for `C[C@@H]1C(=O)O[C@H]2[C@H](O)[C@@]34C5C[C@@H](C(C)(C)C)[C@]36[C@H](OC(=O)[C@@H]6O)OC4(C(=O)O5)[C@@]12O` (some centres undefined), 802 s.
For `Cn1c(=O)n(C)c2cc(CNCCC3=CCCCC3)ccc21` the value was 600 s; for `CC(=O)OCC(=O)[C@@]12N=C(C)O[C@@H]1C[C@H]1[C@@H]3CCC4=CC(=O)C=C[C@]4(C)[C@H]3[C@@H](O)C[C@@]12C`, 862 s; for `Cc1ncc2c(n1)C[C@@H]1CC[C@H]2N1C(=O)c1ccc2c(c1)OCO2`, 639 s.
`CS(=O)(=O)N1CCC(C(=O)N2CC(c3nc(-c4ccccn4)no3)C2)CC1` came in with an RP-LC retention time of 579 s.
Consider `O=C(c1cnn2c(-c3ccc4c(c3)OCO4)ccnc12)N1CCN(Cc2ccc3c(c2)OCO3)CC1`, for which the RP-LC retention time is 648 s.
As for `CCOC(=O)c1c(C)[nH]c(C(=O)N2CCCC(C(=O)N3CCOCC3)C2)c1C` (centres undefined), the figure is 672 s; as for `Cc1ccccc1-c1nc(Cn2c(C)nc3onc(C)c3c2=O)c(C)o1`, 1120 s.
In turn, `COC(=O)C(Cc1ccccc1)NC(=O)N1CCCn2nc(-c3ccncc3)cc2C1` (centres undefined) returned an RP-LC retention time of 616 s.
Compound `COc1ccc(CCN2CN=C(Nc3nc(C)c4cc(C)ccc4n3)NC2)cc1OC` showed an RP-LC retention time of 722 s.
With `O=C(c1cn2cc(Cl)ccc2n1)N1CCN(c2ccc(F)cc2)CC1`, the RP-LC retention time came to 876 s.
Compound `CCOC(=O)c1cnc2nc(C)ccc2c1Nc1ccc(F)cc1Cl` displayed an RP-LC retention time of 742 s.
For `CC(C)C(=O)Nc1cccc(N2CC(C(=O)Nc3ccc(C(C)C)cc3)CC2=O)c1` (centres undefined) the value was 886 s; for `O=C(NCCCn1ncccc1=O)c1coc(NC(=O)c2cccs2)n1`, 589 s; for `CNC(=O)Cc1csc(NC(=O)c2ccc(OCC(=O)C3CC3)cc2)n1`, 631 s.
As for `COC(=O)c1c(C)[nH]c(C(=O)N2CCCC(C(=O)NCCC3=CCCCC3)C2)c1C` (centres undefined), the figure is 825 s; as for `CCCNC(=O)C1CCN(c2cnc(N3CCCCCC3)nc2)CC1`, 666 s.
`CCOc1ccc(NC(=O)N2CCC(c3nc(C(=O)N(C)C)c(C)o3)CC2)cc1` displayed an RP-LC retention time of 696 s.
In the case of `Cc1ccc(-c2noc(-c3nc(C4CC4)no3)n2)cc1`, the RP-LC retention time was 1160 s.
For `O=C(Nc1ccc2cn[nH]c2c1)C1CN(c2nc3ccccc3s2)C1` the value was 630 s.
As for `COc1ccc(-n2nnc(C(=O)O)c2-c2ccccn2)cc1`, the figure is 654 s; as for `Cc1nnc(-c2coc(S(=O)(=O)N(C)C3CCCCC3)c2)o1`, 906 s; as for `COc1ccccc1CC(=O)N1CCC2(CC1)N=C(c1ccc(Cl)cc1)NO2`, 884 s.
`Cc1cccc(NC(=O)CSc2ccc(N3CCCC(C(=O)NC4CC4)C3)nn2)c1` (centres undefined) yielded an RP-LC retention time of 648 s.
For `Cc1ccc2ncn(C3CCN(S(=O)(=O)c4cccc(F)c4)CC3)c(=O)c2c1` the value was 909 s; for `COc1cccc(N2CCN(C(=O)C3CCN(c4nnc(-c5ccccc5)o4)CC3)CC2)c1`, 807 s; for `COCC1CN(C2CCC2)CC12CCN(C(=O)c1ccc(C)s1)CC2` (centres undefined), 645 s.
For `CC(C)NC(=O)C1CCN(c2cncnc2N(C)C)CC1` the value was 580 s; for `COc1ccc(NC(=O)N2CC(N(C3CCOCC3)S(C)(=O)=O)C2)cc1F`, 685 s.
For the compound `CCc1nnc2cc(N3CCN(Cc4cn[nH]c4-c4ccccc4)CC3)cnn12`, the RP-LC retention time came out at 541 s.
In turn, `O=C(NCc1ccccc1)c1cc(N2CCCC2)n2nccc2n1` displayed an RP-LC retention time of 951 s.
Take `O=C(NCc1ccco1)C1CCCN(S(=O)(=O)Cc2ccc(Cl)cc2)C1` (centres undefined): the RP-LC retention time was found to be 888 s.
In turn, `O=C(c1ccc(=O)[nH]c1)N1CC(c2nc(-c3ccccn3)no2)C1` displayed an RP-LC retention time of 666 s.
For `COc1ccc(S(=O)(=O)N2CC(=O)N(C3CCCC3)C3(CCCCC3)C2)cc1OC` the value was 1080 s; for `Cc1cccc(CN2CCN(C3CCN(C(=O)Nc4ccc5c(c4)OCO5)CC3)C2=O)c1`, 836 s.
Consider `O=C(Nc1cccc(Cl)c1)C1CCCN1S(=O)(=O)c1cccc2nsnc12` (centres undefined), for which the RP-LC retention time turned out to be 949 s.
For `CC1CCCN(C(=O)c2cn(-c3cc(-c4nc(C(C)C)no4)ccn3)cn2)C1` (centres undefined) the value was 955 s; for `O=C(Nc1nc(-c2ccc([N+](=O)[O-])cc2)cs1)C1=COCCO1`, 844 s.
The compound `O=C(Nc1cc(-c2ccccc2)nn1CCO)c1ccc2nsnc2c1` gave an RP-LC retention time of 764 s.
As for `Cn1nc(-c2nc(-c3ccccc3)no2)c2c1CCN(C(=O)NC(C)(C)C)C2`, the figure is 780 s; as for `O=C(CSc1nnc(COc2ccccc2)o1)NCc1ccco1`, 753 s; as for `Cc1nc(-c2ccc3c(c2)CCN3C(=O)Cc2ccc(F)cc2)cs1`, 990 s.
As for `O=C(NCCC1CCN(C(=O)Nc2ccccc2)CC1)c1ccoc1`, the figure is 704 s; as for `CCOC(=O)c1ccc(NC(=O)C2CCN(S(=O)(=O)c3cn(C(C)C)cn3)CC2)cc1`, 789 s; as for `O=C(Nc1ccc2cn[nH]c2c1)c1ccc2nc[nH]c2c1`, 541 s.
As for `CC(C)C(=O)N1CCc2[nH]nc(C(=O)NCCCc3ccccc3)c2C1`, the figure is 756 s.
`Cc1ccc(Nc2nc(C(=O)NCCc3cccs3)nc3ccccc23)cc1` yielded an RP-LC retention time of 840 s.
As for `CCn1c(=O)n(CCc2ccccc2)c2cncnc21`, the figure is 715 s; as for `Cn1nc(C(=O)N2CCCCC2)c2c1CCN(C(=O)CCC(=O)NCCN1CCCCCC1)C2`, 590 s.
As for `Cc1nc(C(=O)Nc2ccc(C)c(F)c2)c(C)o1`, the figure is 946 s.
Take `COc1ccc(-c2cc3n(n2)CCCN(C(=O)C2CCOC2)C3)cc1` (centres undefined): the RP-LC retention time stood at 703 s.
With `CCCn1c(=O)c(C)nc2cc(-c3noc(C4CC(=O)N(c5ccc(C)c(C)c5)C4)n3)ccc21` (centres undefined), the RP-LC retention time is 1050 s.
